A short description of this data set: Storage of honey / cannabis extract blends at room temperature, cannabinoid content after storage (conversion). Format: physicochemical. The protocol:
Cannabis plants of various strains were extracted using ethanol at ethanol to plant material weight/weight ratio of 8 to 1 for 30 minutes. Ethanol was removed from the extracts by evaporation under reduced pressure and the desolventized extracts were treated at 120° C. to reach complete decarboxylation. The cannabinoids content in each of the formed extracts was analyzed using HPLC.
Pure honey samples were blended with water and with the cannabis extracts to form what looked to the eye as homogeneous blends. Comparative blends were prepared by blending honey samples with extracts, but with no water addition. Cannabinoids concentrations in the blends were calculated, using the extracts compositions and the dilution by honey and water.
The blends were stored at room temperature for different durations. Then samples were taken and analyzed for cannabinoids content.

The mark [1] stands for this setting: blend of 30 gr honey + 10 gr water + extract, 11 days.
Setting [2] is: blend of 30 gr honey + 10 gr water + extract, glucose 64 %, 11 days, initial (calculated) THC 752 ppm, CBD 749 ppm.
Setting [3] is: comparative blend of 30 gr honey + extract, no water, glucose 85 %, 18 days, initial (calculated) CBD 1150 ppm, THC 1050 ppm.

`C=C(C)[C@@H]1CCC(C)=C[C@H]1c1c(O)cc(CCCCC)cc1O` [CBD, cannabidiol]: under setting [1], the Conversion was 27. Also, the Concentrations after storage runs as follows: under setting [2], 547; under setting [3], 1148.

Turning to `CCCCCc1cc(O)c2c(c1)OC(C)(C)[C@@H]1CCC(C)=C[C@@H]21` [THC, tetrahydrocannabinol], the Conversion under setting [1] turned out to be 45. Moreover, the Concentrations after storage by setting is: under setting [2], 414; under setting [3], 1047. Also, the “Conversion of THC compared with CBD” value (water-diluted honey blends, 11 days) was “greater than that of CBD”.

These data come from US11839601B2, “Cannabis-enriched enzymatically treated therapeutic composition” (priority 2016, dated 2023).
